In patent US20050256132A1, “Use of ER selective NF-kB inhibitors for the treatment of sepsis” (priority 2003, published 2005):
pIC50: −log10 of the molar value. Several values for one entry are separate records, joined by “and”; a condition that tells them apart may be missing. Identical values can stand only once. Entries after “also recorded” stand apart in the source; their conditions may differ.

Legend:
Creatine Kinase = assay: Creatine kinase expression in Ad5-wt-ERα infected HAECT-1 cells (Table 1); type: cell-based, human; details: relative to the maximal stimulation observed with E2
Procedure: T-175 flasks of 100% confluent HAECT-1 cells (immortalized human aortic endothelial cells) were washed with 8 mL of HBSS (HEPES buffered saline solution) and infected for four hours with 6 mL of a 1:10 dilution of Ad5-wt-hERα virus (an adenovirus transfection vector that mediates CMV promoter driven expression of human ERα) in phenol red free Endothelial Cell Basal medium (Clonetics, San Diego Calif., Catalog # CC-3129) containing 0.25% bovine serum albumin (EBM-BSA). After four hours, cells were washed with EBM-BSA and incubated overnight in the same medium. Following overnight incubation, cells were washed with EBM-BSA and infected for 2 hours with 6 mL of a 1:10 dilution of Ad5-3x(NF-κB).Luc virus (Adenovirus luciferase expression vector driven by 3 repeats of the MHC NF-κb site 5′ to the thymidine kinase promoter) in EBM-BSA. […]
ERα infected HAECT-1 cells or control cells were thawed, diluted 42× in warm EBM-BSA, plated into 96-well plates at 0.1 mL/well and incubated for 4 hours at 34° C. […] Luciferase was determined on a Wallac Victor Luminometer (Gaithersburg, Md.) using 10 μL of lysate and mixing with 100 μL of Promega Luciferase Assay reagent. Creatine kinase was determined from the rate of increase in A340 following addition of 100 μL of CK assay reagent (Sigma, cat. No 47-10) to the remainder of the cell lysate. […]

NF-κB = assay: IL-1β stimulated NF-κB reporter activity in ERα expressing HAECT-1 cells; type: cell-based, human; details: ERα expressing HAECT-1 cells, FIG. 1A
Procedure: HAECT-1 cells (Chadwick C C, et al., Proc Natl Acad Sciences, 2005, 102(7): 2543-2548) were cultured in EGM (GIBCO, Rockville, Md.) containing 10% FBS, 1% GlutaMAX and 0.1% Antimycotic-Antibiotic in Falcon T-175 culture flasks at 34° C. in 5% CO2 and infected for four hours with Ad5-wt-ER virus. After overnight recovery, the cells were infected for 2 hours with the Ad5-3x(NFκB).Luc or Ad5-IL6.Luc virus. Compound 67 and 2 ng/ml IL-1 were added to the cells for 15-20 h and the cell lysate was assayed for luciferase activity and evaluated for CK expression (Stanbio Laboratories, Texas). The values are reported as mean±SEM with n=4 from at least 3 independent experiments.

Listeria monocytogenes = assay: Murine Listeria model, cytokine response analysis; type: in vivo, BALB/c mice; details: 10^5 cells/animal iv, 24 hours after challenge, vs control
Procedure: Corn oil and Tween-stabilized vehicle was used as the control. All other reagents used in the experiments were purchased commercially from Sigma (St. Louis, Mo.) except for the cytokine assays which were purchased from Biosource (Camarillo, Calif.). The cytokines were measured by enzyme-linked immunoassay according to the manufacturer's instructions. The limits of detection of each assay are as follows: tumor necrosis factor α—3 pg/ml, interleukin-6—3 pg/ml, interferon gamma—1 pg/ml, monocyte chemo attractant protein—9 pg/ml. Endotoxin values were measured using a quantitative turbidometric assay (LAL5000) (Associates of Cape Cod, Woods Hole, Mass.).
The listeria model of systemic infection in mice was performed as previously described (Opal S. M., et al., Shock 15(4):285-290, 2001). Compound 67 was administered orally via an orogastric tube to BALB/c mice in an increasing dose schedule of from 1.5 mg/kg to 50 mg/kg. The BALB/c mice were purchased from Charles River Laboratories (Wilmington, Mass.). […]
For the cytokine response analysis, a standard dose of 10^5 cells/animal was administered intravenously, and cytokine measures were performed 24 hours after the intravenous challenge. […] The LD50 was calculated by the method of Reed and Meuch (Opal S. M., et al., J Infect Dis 187:70-76, 2003.).

[1] = Cecal ligation and puncture model in mice; type: in vivo, BALBc mice
Procedure: The cecal ligation puncture (“CLP”) procedure was derived from a modification of standard methods previously described (Opal S M, et al., Shock 15(4):285-290, 2001). Female, non-pregnant, specific pathogen-free, Albino BALBc mice (20-25 gm) were used in the experiment. […] Animals were allowed to eat and drink sterile water on an ad libitum basis until 12 h before surgery when food was withheld until after the surgical procedure.
Anesthetized animals (methoxyflurane, Mallinckodt Veterninary Inc., Mundeline, Ill.) had the abdominal skin shaved and a midline, abdominal incision was made. The cecum was exteriorized and distended using intraluminal contents from the colon. The cecum was then ligated below the ileocecal valve and punctured twice using a 23-gauge sterile needle. The cecum was returned to the peritoneal cavity and the transversalis fascia was closed along with the skin incision. The skin incision was covered with topical bacitracin ointment. The animals were given a single […] dose of trovafloxacin (20 mg/kg IM) immediately post-operatively and a 1-mL subcutaneous dose of PBS was given as fluid resuscitation. […] All animals underwent necropsy examination for histological evidence of organ injury, pathology scoring of intestinal mucosa, and quantitative bacteriology.
Differences in survival time between groups were analyzed by Kaplan-Meier survival plots and log-rank testing. Other parameters were measured using a Mann-Whitney U-Test for 2 groups or the Kruskal-Wallis one way analysis of variance for 3 or more groups. A p value of <0.05 was considered significant. All data is presented as mean and standard deviation.

## COc1ccccc1[C@H](c1cccc2ccccc12)[C@@](C)(C#N)C(=O)N1CCC(c2cccc(C(F)(F)F)c2)CC1 [Example 67, (S,S)-3-(2-methoxyphenyl)-2-methyl-3-(1-naphthyl)-2-({4-[3-(trifluoromethyl)phenyl]piperidin-1-yl}carbonyl)propanenitrile]
Creatine Kinase
  Creatine Kinase Efficacy: 41% and 58%
NF-κB
  efficacy compared with E2, NF-κB reporter: 94%
NF-κB; Homo sapiens, HAECT1
  pIC50: 6.91
Listeria monocytogenes
  cytokine levels (TNF, IL-6, MCP-1, interferon gamma) in bacteremic animals: unchanged
[1]; 50 mg/kg at 0, 24 and 48 hours after CLP, 7 days, FIG. 5
  survival vs vehicle control (Kaplan-Meier): significant survival advantage; also recorded: significantly greater than control
[1]; 50 mg/kg, p<0.05 vs vehicle control
  histopathologic scores of small bowel intestinal mucosa: significant preservation of mucosal integrity
[1]; 50 mg/kg, vs vehicle control, p=ns
  systemic cytokine release and endotoxin levels: did not differ
